Data: patent US12358960B2, “Selective targeting of ubiquitin- and ubiquitin-like E1-activating enzymes by structurally-stabilized peptides” (Dana-Farber Cancer Institute, Inc., priority 2019, dated 2025)
Entries after “also recorded” stand apart in the source; their conditions may differ. Bridge positions count the residues as written; N and C are the ends. Square brackets hold non-standard residues; d marks the D form. Ends that are not written are not given here. * marks the point of attachment. R8 = C=CCCCCCC[C@@](C)(N)C(=O)O; S5 = C=CCCC[C@](C)(N)C(=O)O; Nle = CCCC[C@H](N)C(=O)O; Dab = NCC[C@H](N)C(=O)O; Acryloyl = C=CC(=O)*

The substances below were run against T1, Human E1 activating enzyme UBA1 (Homo sapiens, UniProt P22314) (assay: In vitro enzyme inhibition assay: E1-mediated ubiquitin thioester transfer to E2 (band shift, silver stain)). Conditions: 100 μM peptide, UbcH5b E2 enzyme, 45 minutes, staple scan.
T1 sequence (P22314 1-1058): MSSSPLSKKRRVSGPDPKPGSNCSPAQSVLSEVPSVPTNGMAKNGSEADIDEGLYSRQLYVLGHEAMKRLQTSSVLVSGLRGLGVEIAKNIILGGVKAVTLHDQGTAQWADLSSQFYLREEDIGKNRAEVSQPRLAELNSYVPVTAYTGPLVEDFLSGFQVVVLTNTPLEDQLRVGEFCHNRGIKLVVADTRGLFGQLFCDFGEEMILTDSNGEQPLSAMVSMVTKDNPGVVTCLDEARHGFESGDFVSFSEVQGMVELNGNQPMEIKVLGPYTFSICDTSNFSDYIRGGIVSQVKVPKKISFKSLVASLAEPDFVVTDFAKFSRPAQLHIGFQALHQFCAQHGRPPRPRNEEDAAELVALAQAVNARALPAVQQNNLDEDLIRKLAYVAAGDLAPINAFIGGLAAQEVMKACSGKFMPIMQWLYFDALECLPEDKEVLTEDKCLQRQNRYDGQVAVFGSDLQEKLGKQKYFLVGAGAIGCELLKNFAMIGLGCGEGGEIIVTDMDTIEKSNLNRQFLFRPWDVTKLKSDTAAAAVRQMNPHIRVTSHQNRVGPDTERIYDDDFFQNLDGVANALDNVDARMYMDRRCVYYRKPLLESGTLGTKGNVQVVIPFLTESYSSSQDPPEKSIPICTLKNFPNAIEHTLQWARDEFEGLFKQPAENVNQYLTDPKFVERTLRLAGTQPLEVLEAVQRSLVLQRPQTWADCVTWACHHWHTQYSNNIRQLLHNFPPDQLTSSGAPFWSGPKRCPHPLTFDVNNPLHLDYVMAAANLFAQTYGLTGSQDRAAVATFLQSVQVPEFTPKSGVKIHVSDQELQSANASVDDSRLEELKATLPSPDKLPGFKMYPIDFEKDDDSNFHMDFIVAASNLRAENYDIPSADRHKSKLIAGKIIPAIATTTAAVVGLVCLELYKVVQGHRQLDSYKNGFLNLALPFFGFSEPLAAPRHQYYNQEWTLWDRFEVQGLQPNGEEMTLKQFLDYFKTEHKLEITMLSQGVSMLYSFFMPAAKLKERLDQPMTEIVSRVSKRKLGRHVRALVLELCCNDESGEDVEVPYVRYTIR
Type: biochemical
Protocol: In vitro Enzyme Inhibition Assays: To assess an E2 hA peptide's inhibition of an E1 enzyme, an in vitro enzyme inhibition assay can be used, for example. The in vitro enzyme inhibition assay measures an E2 hA peptide's ability to inhibit conjugation of ubiquitin to E2 by E1. Briefly, recombinant E1 (e.g., UBA1), recombinant E2 (e.g., UBE2A), ubiquitin, and Mg-ATP are combined in the presence of an E2 hA peptide or vehicle control (e.g., 1% DMSO) for a period of time (e.g., 30 minutes) at room temperature in a buffer containing, e.g., 50 mM NaCl, 50 mM HEPES pH 7.5. Control reaction includes no E1. Reactions are quenched by addition of SDS-containing loading dye and samples are resolved on a gel (e.g., a 4-12% Bis-Tris protein gel) under nonreducing conditions. Proteins on the gel are visualized via, e.g., silver stain. Conjugation of ubiquitin to E2 by E1 is monitored by conversion of free E2 (˜17 kDa) to E2˜ubiquitin conjugate (˜26 kDa).
Control reaction included no E1 enzyme. Reactions were quenched by addition of SDS-containing loading dye and samples were resolved on a 4-12% Bis-Tris protein gel under nonreducing conditions. Proteins were visualized via silver stain. Conjugation of ubiquitin to E2 by E1 was monitored by conversion of free E2 (17 kDa) to E2˜ubiquitin conjugate (26 kDa).
The ability of the peptides to inhibit E1-mediated thioester transfer to E2 was evaluated. Human E1 activating enzyme UBA1 (10 nM), UbcH5b E2 enzyme (150 nM), ubiquitin (1 μM), and Mg-ATP (20 μM) were combined in the presence of stapled peptide at a range of concentrations or vehicle control (1% DMSO) for 45 minutes at room temperature in buffer containing 50 mM NaCl, 50 mM HEPES, 1 mM TCEP pH 7.5. Reactions were quenched by addition of SDS-containing loading dye and samples were resolved on a 4-12% Bis-Tris protein gel under nonreducing conditions. Proteins were visualized via silver stain. Conjugation of ubiquitin to E2 by E1 was monitored by conversion of free E2 (17 kDa) to E2˜ubiquitin conjugate (26 kDa). Inhibition percentage was calculated from densitometry of silver stain images.
Streptavidin-biotin pull-down assays: For recombinant protein pull-downs, 10 pmol recombinant human UBA1 was incubated with 5 nmol C-terminally biotinylated SAH-UBE2A or DMSO vehicle control in a total volume of 1 mL binding buffer (50 mM NaCl, 20 mM HEPES, pH 7.4, 5 mM DTT) for 1.5 hours at 4° C. 30 μL of pre-equilibrated streptavidin agarose beads were then added and incubated for an additional 1.5 hours at 4° C. The beads were pelleted by centrifugation and washed three times with NP-40 buffer (20 mM HEPES, pH 7.4, 50 mM NaCl, 5 mM DTT, 0.5% [v/v] NP-40) before eluting the protein sample from the beads by heating at 70° C. for 10 min in 3×SDS loading buffer. Samples were subjected to electrophoresis and silver staining (Pierce 24612). For pull-down from cellular lysates, 0.75 mg HeLa cell lysate was incubated with 5 nmol C-terminally biotinylated SAH-UBE2A or DMSO vehicle control in a total volume of 1 mL binding buffer (50 mM NaCl, 20 mM HEPES, pH 7.4, 5 mM DTT) containing protease-phosphatase inhibitor cocktail for 2 hours at 4° C. 30 μL of pre-equilibrated streptavidin agarose beads (ThermoFisher 20357) were then added and incubated for an additional 1.5 hours at 4° C. The beads were pelleted by centrifugation and washed three times with NP-40 buffer (20 mM HEPES, pH 7.4, 50 mM NaCl, 5 mM DTT, 0.5% [v/v] NP-40) before eluting the protein sample from the beads by heating at 70° C. for 10 min in 3×SDS loading buffer. Proteins were separated by SDS-PAGE gel electrophoresis and detected by western blot against UBE1 (Abcam ab34711). In vitro Enzyme Inhibition Assays: Recombinant human E1 activating enzyme UBA1 (10 nM), E2 enzyme (150 nM), ubiquitin (1 μM), and Mg-ATP (20 μM) are combined in the presence of peptide or vehicle control (1% DMSO) for 45 minutes at room temperature in buffer containing 50 mM NaCl, 50 mM HEPES pH 7.5. Control reaction includes no E1 enzyme. […]
BPSSASRQLLRKQX2KEIX2 [SEQ ID NO:48] was tested, and the “inhibition of E1-mediated ubiquitin transfer to E2 (conversion of E2 to E2~ubiquitin)” value (“inhibition … (conversion of E2 to E2~ubiquitin)” below) was “unable to inhibit E1-mediated ubiquitin transfer to E2”. BPSSASRQLLRKX2LKEX2Q [SEQ ID NO:47] was tested, and the “inhibition … (conversion of E2 to E2~ubiquitin)” value was “inhibited conversion of E2 to E2˜ubiquitin by E1”. BPSSASRQLLRX2QLKX2IQ [SEQ ID NO:46] was tested, and the “inhibition … (conversion of E2 to E2~ubiquitin)” value was “inhibited conversion of E2 to E2˜ubiquitin by E1”. BPSSASRQLX1RKQLKEX2Q [SEQ ID NO:54] was tested, and the “inhibition … (conversion of E2 to E2~ubiquitin)” value was “unable to inhibit E1-mediated ubiquitin transfer to E2”. In the case of BPSSASRQLX2RKQX2KEIQ [SEQ ID NO:45], the “inhibition … (conversion of E2 to E2~ubiquitin)” value is reported as “unable to inhibit E1-mediated ubiquitin transfer to E2”. For BPSSASRQX1LRKQLKX2IQ [SEQ ID NO:53], the “inhibition … (conversion of E2 to E2~ubiquitin)” value was “inhibited conversion of E2 to E2˜ubiquitin by E1”. With BPSSASRQX2LRKX2LKEIQ [SEQ ID NO:44] the “inhibition … (conversion of E2 to E2~ubiquitin)” value was “inhibited conversion of E2 to E2˜ubiquitin by E1”. With BPSSASRX1LLRKQLX2EIQ [SEQ ID NO:52] the “inhibition … (conversion of E2 to E2~ubiquitin)” value was “inhibited conversion of E2 to E2˜ubiquitin by E1”. With BPSSASRX2LLRX2QLKEIQ [SEQ ID NO:43] the “inhibition … (conversion of E2 to E2~ubiquitin)” value was “unable to inhibit E1-mediated ubiquitin transfer to E2”. In the case of BPSSASX1QLLRKQX2KEIQ [SEQ ID NO:51], the “inhibition … (conversion of E2 to E2~ubiquitin)” value is reported as “unable to inhibit E1-mediated ubiquitin transfer to E2”. For BPSSAX2RQLX2RKQLKEIQ [SEQ ID NO:42], the “inhibition … (conversion of E2 to E2~ubiquitin)” value was “unable to inhibit E1-mediated ubiquitin transfer to E2”. With BPSSX1SRQLLRX2QLKEIQ [SEQ ID NO:49] the “inhibition … (conversion of E2 to E2~ubiquitin)” value was “inhibited conversion of E2 to E2˜ubiquitin by E1”. In the case of BPSSX2SRQX2LRKQLKEIQ [SEQ ID NO:41], the “inhibition … (conversion of E2 to E2~ubiquitin)” value is reported as “unable to inhibit E1-mediated ubiquitin transfer to E2”.

Same assay, conditions: Example 8
For “BPSSAX1RQLLRJX2LKEIQ ([Nle]PSSA[R8]RQLLR[Dab](Acryloyl)[S5]LKEIQ; staple 6-13; not fully specified (N-terminus, C-terminus); printed as BPSSAX1RQLLRJX2LKEIQ) [SEQ ID NO:842, warhead-bearing stapled peptide, J acrylamide-bearing Dab at A8, staple A2 and A9]”, the “inhibition of E1-mediated thioester transfer to E2 by warhead-bearing stapled peptides” value (“inhibition … by warhead-bearing stapled peptides” for short) was “inhibited E1-mediated thioester transfer to E2”. For “BPSSAX1RQLLRKX2LJEIQ ([Nle]PSSA[R8]RQLLRK[S5]L[Dab](Acryloyl)EIQ; staple 6-13; not fully specified (N-terminus, C-terminus); printed as BPSSAX1RQLLRKX2LJEIQ) [SEQ ID NO:844, warhead-bearing stapled peptide, J acrylamide-bearing Dab at A11, staple A2 and A9]”, the “inhibition … by warhead-bearing stapled peptides” value was “inhibited E1-mediated thioester transfer to E2”. For “BPSSX1SRQLLRX2QLJEIQ ([Nle]PSS[R8]SRQLLR[S5]QL[Dab](Acryloyl)EIQ; staple 5-12; not fully specified (N-terminus, C-terminus); printed as BPSSX1SRQLLRX2QLJEIQ) [SEQ ID NO:841, warhead-bearing stapled peptide, J acrylamide-bearing Dab at A11, staple A1 and A8]”, the “inhibition … by warhead-bearing stapled peptides” value was “inhibited E1-mediated thioester transfer to E2”.

Same assay, conditions: SAH-UBE2A-11 variants and controls, Examples 4, 7, 13
With “BSTPX1RARAARX2FKRLQ (Ac-[Nle]STP[R8]RARAAR[S5]FKRLQ-NH2; staple 5-12) [SAH-UBE2A-AAA]” the “inhibition of E1-mediated thioester transfer to E2 by mutant / additional stapled peptides” value was “no inhibitory activity; also recorded: progressively impaired inhibitory activity as compared to the single point mutation peptide SAH-UBE2A-R7E; also recorded: negligible inhibitory activity”. “BSTPX1RARLBRX2FKRLQ (Ac-[Nle]STP[R8]RARL[Nle]R[S5]FKRLQ-NH2; staple 5-12) [SEQ ID NO:817]” was tested, and the “inhibition of E1-mediated thioester transfer to E2 by mutant / additional stapled peptides” value was “impair the inhibitory activity of SAH-UBE2A-11”. For “BSTPX1RERLBRX2FKRLQ (Ac-[Nle]STP[S5]RERL[Nle]R[R8]FKRLQ-NH2; staple 5-12) [SAH-UBE2A-11-R7E, point mutant negative control stapled peptide]”, the “inhibition of E1-mediated thioester transfer to E2 by mutant / additional stapled peptides” value was “reduced inhibitory activity as compared to SAH-UBE2A”. With “BSTPX1RRRABRX2FKRLQ ([Nle]STP[R8]RRRA[Nle]R[S5]FKRLQ-NH2; staple 5-12; not fully specified (N-terminus); printed as BSTPX1RRRABRX2FKRLQ) [SEQ ID NO:819]” the “inhibition of E1-mediated thioester transfer to E2 by mutant / additional stapled peptides” value was “impair the inhibitory activity of SAH-UBE2A-11”. “BSTPX1RRRLARX2FKRLQ (Ac-[Nle]STP[R8]RRRLAR[S5]FKRLQ-NH2; staple 5-12) [SEQ ID NO:820]” was tested, and the “inhibition of E1-mediated thioester transfer to E2 by mutant / additional stapled peptides” value was “impair the inhibitory activity of SAH-UBE2A-11”.

Same assay, conditions: panel of human E2 enzymes (UBE2A, UBE2B, UBE2C, UBE2D1-4 etc.)
“BSTPX1RERLBRX2FKRLQ (Ac-[Nle]STP[S5]RERL[Nle]R[R8]FKRLQ-NH2; staple 5-12) [SAH-UBE2A-11-R7E, point mutant negative control stapled peptide]” was tested, and the “inhibition of E1-mediated thioester transfer to a variety of human E2 enzymes” value was “diminished inhibitory capacity; also recorded: mitigated by a single point mutation (R7E)”.

Same assay, conditions: range of peptide concentrations, UbcH5b E2 enzyme, 45 minutes
With BAGTX1LKRLBAX2YK [SAH-UBE2G2-11] the “inhibition of E1-mediated thioester transfer to E2, dose response” value was “inhibited E1-mediated thioester transfer to E2 in a dose-dependent manner; also recorded: dose-dependently inhibit E1-mediated thioester transfer to E2”.
